Data on two molecules can be found in patent US10258587B2, “Branched chain fatty acids for prevention or treatment of gastrointestinal disorders” (priority 2007, dated 2019).

One data set has as its system Caco-2 cells. Description: Caco-2 BCFA uptake experiment (18 h incubation, GC/MS of cell lipids). Type of data set: in vitro ADME, human. The settings on record: BCFA-treated Caco-2 cells. The protocol: Twenty-four hours prior to treatment with BCFA, DMEM was replaced with MEM (Minimum Essential Medium). […] Two others served as controls. Cells were incubated for 18 hours, after which media was removed and the cells were thoroughly and carefully washed three times. Cell lipids were extracted and FAME prepared for GC/MS.

A further data set relates to Bacillus megaterium. The conditions noted are these: LL-37 mixed in a ratio of 3:1 with vernix lipids; cited from earlier work.

In the case of `CC(C)CCCCCCCCCCCCCCCCC(=O)O` [iso-20:0, iso-eicosanoic acid], the “incorporation of BCFA into monoacylglycerols (MAG)” value in the data set on Caco-2 cells (MAG fraction) is on record as “favoring”. Also, the “incorporation of BCFA into phospholipids (PL)” value in the data set with Caco-2 cells (PL fraction) was “selection against”. In the case of “LL-37: antimicrobial vernix peptide (LLGDFFRKSKEKIGKEFKRIVQRIKDFLRNLVPRTES; Antibacterial peptide LL-37; UniProt P49913 134-170, looked up)”, in the data set with Bacillus megaterium, the “growth of Bacillus megaterium, peptide mixed with vernix lipids” value is reported as “further growth inhibition”.
